Measurements: patent publication US10703748B2, “Diazanaphthalen-3-yl carboxamides and preparation and use thereof” (Samumed, LLC, priority 2017, dated 2020)

Tests used:
[1] = tested on: SW480 colon carcinoma cells; assay: Cell viability assay (CellTiter-Glo); conditions: Homo sapiens; for EC50: SW480, 96 h; for inhibition at 10 µM: SW480, read-out: percent inhibition at 10 μM
[2] = molecular target: DYRK1A kinase (Homo sapiens, UniProt Q13627); assay: DYRK1A kinase activity (Ser/Thr 18 peptide Z-lyte FRET assay); format: biochemical; conditions: recombinant DYRK1A, 30 μM ATP, one hour at room temperature;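 note: kinase activity read as coumarin/fluorescein emission ratio after development step, with unphosphorylated and phosphorylated peptide forms setting 0% and 100% controls, values from dose-response curves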
[3] = tested on: IL-6; assay: IL-6 inhibition in LPS-stimulated human peripheral blood mononuclear cells (HTRF); conditions: Homo sapiens, PBMC; for EC50: 22 h; for inhibition at 10 µM: read-out: percentage in parentheses after EC50 >10
[4] = tested on: Tau phosphorylation at Threonine 212 (pT212Tau); assay: Tau phosphorylation at Threonine 212 (pT212Tau) in Dyrk1a- and MAPT-overexpressing HEK293T cells, sandwich ELISA; format: cell-based; conditions: Homo sapiens, HEK-293T, overnight (16-18 hours), read-out: Thr212 EC50
Protocol: HEK293T cells (transfectable human embryonic kidney cells) were cultured in DMEM medium supplemented with 10% FBS and 1% penicillin/streptomycin.
HEK293T cells were transiently transfected to overexpress Dyrk1a and microtubule-associated protein Tau (MAPT) genes. Specifically, Dyrk1a and MAPT expression vectors were obtained from OriGene (10 μg of each, catalog numbers SC314641 and RC216166, respectively). A MaxiPrep for each vector was ordered and received from GeneWiz, yielding 874.5 μg (resuspended at […]) of the Dyrk1a expression vector, and 898 μg (resuspended at […]) of MAPT.
HEK293T cells were seeded at 1.0×10^7 cells in 10 mL per T-75 flask. […] One T-75 flask was designated as a no-vector negative control for pT212Tau signal.
After 4-6 hours of incubation in transfection reagents, transiently double transfected HEK293T cells were dissociated by treatment with trypsin EDTA and seeded at 1.0×10^5 cells in 100 μL per well in 96-well plates. No-vector negative controls were seeded in separate 96-well plates to avoid the risk of the negative control cells picking up the overexpression during incubation. At the time of seeding, DMSO-resuspended Samumed compounds were dispensed to eight wells as a serial dilution from 10 μM to 4.6 nM final concentration in medium, or at 0.12 μM to 0.05 nM with particularly potent compounds. Cells were exposed to the representative compounds overnight (16-18 hours) in a 37° C. incubator.
96-Well flat-bottom plates were coated with 100 μL per well anti-HT7 capture antibody (ThermoFisher, MN1000) diluted 1:300 in 1×PBS at 4° C. overnight, with shaking at 500 rpm. After overnight capture antibody incubation, coated plates were washed four times with 200 μL per well of 1×PBS-0.05% Tween-20, and blocked for 1 hour with 200 μL per well of 1×PBS with 2% BSA. After 1 hour of blocking, plates were washed four times with 200 μL per well of 1×PBS-0.05% Tween-20, prior to sample loading.
Wells of compound-treated cells were visually checked for cell death before being washed with 200 μL per well of 1×DPBS supplemented with phosphatase inhibitor diluted to 1×. Cells were then lysed with 100 μL 1×RIPA buffer supplemented with phosphatase and protease inhibitors (each diluted to a final 1×). Cells were shaken at 500 rpm, 4° C. for 20 minutes prior to further lysis (via manual scraping) and transfer to 96-well V-bottom collection plates (Corning, 3894). V-bottom plates were centrifuged at 4000 rpm, 4° C., for 15 minutes, and 100 μL of lysate supernatant from each well was directly tested for pT212Tau signal by sandwich ELISA.
Specifically, lysates were directly transferred to the coated and blocked ELISA plates for 2 hours before plates were washed four times with 200 μL per well of 1×PBS-0.05% Tween-20 and probed with 100 μL per well of anti-pT212Tau antibody (ThermoFisher, 44-740G) diluted 1:200 in 1×PBS for 2 hours. Plates were washed four times with 200 μL per well of 1×PBS-0.05% Tween-20 and probed with 100 μL per well of anti-rabbit/HRP conjugate (Cell Signaling Technology, 7074S) diluted 1:600 in 1×PBS for 1 hour. Plates were washed four times with 200 μL per well of 1×PBS-0.05% Tween-20 before 100 μL per well of TMB substrate solution (ThermoFisher, N301) was added. When colour development was observed, 100 μL per well of stop solution (ThermoFisher, N600) was added, and colorimetric detection of pT212Tau signal was read at 450 nm with the Cytation 3 Cell Imaging Multi-Mode Reader (BioTek). The signal was used to plot, draw the curves fitting, and determine the EC50 values in GraphPad Prism for tested representative compounds.

[5] = tested on: α-smooth muscle actin (aSMA) positive LL29 cells; assay: Inhibition of the fibrotic process: αSMA staining in TGF-β1 treated LL29 fibroblasts from IPF patients; conditions: Homo sapiens, Fibroblast; for EC50: 96 h; for inhibition at 10 µM: read-out: percentage in parentheses after EC50 >10
[6] = tested on: Wnt-responsive Sp5-Luc reporter in SW480 colon carcinoma cells; assay: Screening assay for Wnt activity (Sp5-Luc reporter gene assay); conditions: Homo sapiens; for EC50: SW480; for inhibition at 10 µM: SW480, read-out: percent inhibition at 10 μM
[7] = tested on: secreted cytokines TNFα, IL-6 and KC-GRO; assay: Secreted cytokines in Lipopolysaccharide-stimulated BV-2 cells (Table 9 does not say which cytokine); format: cell-based, mouse; conditions: Mus musculus, BV-2, 5 h; read-out: EC50
[8] = tested on: Tau phosphorylation at Ser396 (pSer396); assay: Tau phosphorylation at Ser396 (pSer396) in SH-SY5Y cells, ELISA / western blot; format: cell-based, human; conditions: Homo sapiens; SH-SY5Y cells, overnight (16-18 h); read-out: pSer396 Tau EC50;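 note: decrease in pSer396 Tau measured in lysates of treated cells by colorimetric ELISA or chemiluminescent western blot, same pSer396 antibody for both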
Protocol: Two days before treatment, cells were seeded onto 96 well plates at 5×10^4 cells/well.
The above synthesized compounds were screened using the cell assay procedure to assess decrease Tau phosphorylation at Ser396 (pSer396) described below.
Cells were lysed with RIPA buffer complemented with phosphatase and protease inhibitors then lysates were spun down at 12,000 g for 10 min to remove any cellular debris.

[9] = molecular target: GSK3β kinase (Homo sapiens, UniProt P49841); assay: GSK3β kinase activity (Ser/Thr 09 peptide Z-lyte FRET assay); format: biochemical; conditions: recombinant kinase, 46 μM ATP, one hour at room temperature; read-out: EC50
Sequence of GSK3β kinase (P49841 whole entry): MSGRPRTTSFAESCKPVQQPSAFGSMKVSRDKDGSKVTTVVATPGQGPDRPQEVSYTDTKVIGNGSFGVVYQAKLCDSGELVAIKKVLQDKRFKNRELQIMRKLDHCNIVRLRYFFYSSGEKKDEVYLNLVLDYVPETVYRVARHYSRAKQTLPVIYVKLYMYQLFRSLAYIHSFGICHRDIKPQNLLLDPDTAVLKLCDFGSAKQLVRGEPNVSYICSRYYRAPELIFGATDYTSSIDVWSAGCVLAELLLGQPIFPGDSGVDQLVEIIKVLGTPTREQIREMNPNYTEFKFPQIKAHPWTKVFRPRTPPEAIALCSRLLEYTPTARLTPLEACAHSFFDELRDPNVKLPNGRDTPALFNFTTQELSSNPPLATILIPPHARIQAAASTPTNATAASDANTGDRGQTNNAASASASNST

C[C@H]1CCCN1CC(=O)Nc1cc2nc(-c3cnn(C)c3)ccc2cn1 [Compound 47, (S)—N-(2-(1-methyl-1H-pyrazol-4-yl)-1,6-naphthyridin-7-yl)-2-(2-methylpyrrolidin-1-yl)acetamide]
EC50 [1]: > 10 µM
inhibition at 10 µM [1]: 35.2%
EC50 [2]: 0.036 µM
EC50 [3]: > 10 µM
inhibition at 10 µM [3]: 0%
EC50 [4]: 0.668 µM
EC50 [5]: 7.2 µM
EC50 [6]: 5.21 µM
EC50 [7]: 0.26 µM
EC50 [8]: > 10 µM
EC50 [9]: 0.2 µM

Cn1cc(-c2ccc3nnc(NC(=O)C4CC4)cc3c2)cn1 [Compound 1815, N-(6-(1-Methyl-1H-pyrazol-4-yl)cinnolin-3-yl)cyclopropanecarboxamide]
EC50 [1]: > 10 µM
inhibition at 10 µM [1]: 15.8%
EC50 [2]: > 10 µM
EC50 [3]: > 10 µM
inhibition at 10 µM [3]: 7%
EC50 [4]: > 10 µM
EC50 [5]: > 10 µM
inhibition at 10 µM [5]: 33.5%
EC50 [6]: > 10 µM
inhibition at 10 µM [6]: 12.9%
EC50 [8]: > 10 µM
EC50 [9]: > 10 µM

CN1CCN(c2cccc(C(=O)Nc3cc4cc(-c5cnn(C)c5)ccc4nn3)c2)CC1 [Compound 1953, N-(6-(1-Methyl-1H-pyrazol-4-yl)cinnolin-3-yl)-3-(4-methylpiperazin-1-yl) benzamide]
EC50 [1]: > 10 µM
inhibition at 10 µM [1]: 7.8%
EC50 [2]: 0.317 µM
EC50 [3]: > 10 µM
inhibition at 10 µM [3]: 12.8%
EC50 [4]: > 10 µM
EC50 [5]: > 10 µM
inhibition at 10 µM [5]: 55.5%
EC50 [6]: > 10 µM
inhibition at 10 µM [6]: 9.7%
EC50 [7]: 2.9 µM
EC50 [8]: > 10 µM
EC50 [9]: 2.62 µM

Cn1cc(-c2cnc3cnc(NC(=O)c4ccc(OC5CCNCC5)cc4)cc3c2)cn1 [Compound 2864, N-(3-(1-Methyl-1H-pyrazol-4-yl)-1,7-naphthyridin-6-yl)-4-(piperidin-4-yloxy)benzamide]
EC50 [1]: 4.06 µM
EC50 [2]: 0.039 µM
EC50 [3]: > 10 µM
inhibition at 10 µM [3]: 10%
EC50 [4]: 0.31 µM
EC50 [5]: > 10 µM
inhibition at 10 µM [5]: 7.3%
EC50 [6]: > 10 µM
inhibition at 10 µM [6]: 47.3%
EC50 [8]: > 10 µM
EC50 [9]: > 10 µM

CN1CCC(Oc2ccc(C(=O)Nc3cc4cc(-c5cnn(C)c5)cnc4cn3)cc2)CC1 [Compound 2865, N-(3-(1-Methyl-1H-pyrazol-4-yl)-1,7-naphthyridin-6-yl)-4-((1-methylpiperidin-4-yl)oxy)benzamide]
EC50 [1]: 4.38 µM
EC50 [2]: 0.041 µM
EC50 [3]: 9.61 µM
EC50 [4]: 0.122 µM
EC50 [5]: 5.12 µM
EC50 [6]: 3.02 µM
EC50 [7]: 0.16 µM
EC50 [8]: > 10 µM
EC50 [9]: > 10 µM

Cn1cc(-c2cnc3cnc(NC(=O)c4ccnc(N5CCNCC5)c4)cc3c2)cn1 [Compound 2866, N-(3-(1-Methyl-1H-pyrazol-4-yl)-1,7-naphthyridin-6-yl)-2-(piperazin-1-yl) isonicotinamide]
EC50 [1]: 2.48 µM
EC50 [2]: 0.041 µM
EC50 [3]: > 10 µM
inhibition at 10 µM [3]: 0%
EC50 [4]: 1.6 µM
EC50 [5]: > 10 µM
inhibition at 10 µM [5]: 47.4%
EC50 [6]: 2.2 µM
EC50 [8]: > 10 µM
EC50 [9]: > 10 µM

CN1CCN(c2cc(C(=O)Nc3cc4cc(-c5cnn(C)c5)cnc4cn3)ccn2)CC1 [Compound 2867, N-(3-(1-methyl-1H-pyrazol-4-yl)-1,7-naphthyridin-6-yl)-2-(4-methylpiperazin-1-yl)isonicotinamide]
EC50 [1]: 4.05 µM
EC50 [2]: 0.036 µM
EC50 [3]: > 10 µM
inhibition at 10 µM [3]: 5.2%
EC50 [4]: 0.046 µM
EC50 [5]: 5.38 µM
EC50 [6]: 9.16 µM
EC50 [8]: > 10 µM
EC50 [9]: > 10 µM

CN1CCN(c2cc(C(=O)Nc3cc4cc(-c5cn(C)nn5)cnc4cn3)ccn2)CC1 [Compound 3098, N-(3-(1-Methyl-1H-1,2,3-triazol-4-yl)-1,7-naphthyridin-6-yl)-2-(4-methylpiperazin-1-yl)isonicotinamide]
EC50 [1]: > 10 µM
inhibition at 10 µM [1]: 14.4%
EC50 [2]: 0.096 µM
EC50 [3]: > 10 µM
inhibition at 10 µM [3]: 4.7%
EC50 [4]: 2 µM
EC50 [5]: > 10 µM
inhibition at 10 µM [5]: 8.3%
EC50 [6]: > 10 µM
inhibition at 10 µM [6]: 14.9%
EC50 [8]: > 10 µM
EC50 [9]: > 10 µM

Cn1cc(-c2cnc3cnc(NC(=O)c4ccnc(N5CCNCC5)c4)cc3c2)nn1 [Compound 3105, N-(3-(1-Methyl-1H-1,2,3-triazol-4-yl)-1,7-naphthyridin-6-yl)-2-(piperazin-1-yl)isonicotinamide]
EC50 [1]: 9.75 µM
EC50 [2]: 0.147 µM
EC50 [3]: > 10 µM
inhibition at 10 µM [3]: 8%
EC50 [4]: 7.8 µM
EC50 [5]: > 10 µM
inhibition at 10 µM [5]: 21.8%
EC50 [6]: 4.16 µM
EC50 [8]: > 10 µM
EC50 [9]: > 10 µM

Cn1cc(-c2cc3cc(NC(=O)C4CCNCC4)ncc3cn2)cn1 [Compound 3638, N-(6-(1-Methyl-1H-pyrazol-4-yl)-2,7-naphthyridin-3-yl)piperidine-4-carboxamide]
EC50 [1]: 6.92 µM
EC50 [2]: 0.006 µM
EC50 [3]: > 10 µM
inhibition at 10 µM [3]: 6.3%
EC50 [4]: 0.112 µM
EC50 [5]: > 10 µM
inhibition at 10 µM [5]: 34.9%
EC50 [6]: 0.593 µM
EC50 [7]: 1.4 µM
EC50 [8]: 1.5 µM
EC50 [9]: 0.027 µM

CC(C)CN1CCC(C(=O)Nc2cc3cc(-c4cnn(C)c4)ncc3cn2)CC1 [Compound 3643, 1-Isobutyl-N-(6-(1-methyl-1H-pyrazol-4-yl)-2,7-naphthyridin-3-yl) piperidine-4-carboxamide]
EC50 [1]: 6.99 µM
EC50 [2]: 0.01 µM
EC50 [3]: > 10 µM
inhibition at 10 µM [3]: 9.8%
EC50 [4]: 0.03 µM
EC50 [5]: 2.5 µM
EC50 [6]: 0.073 µM
EC50 [7]: 3.9 µM
EC50 [8]: 0.102 µM
EC50 [9]: 0.031 µM

CC(C)n1cc(C(=O)Nc2cc3nc(-c4cncc(NC5CCN(C)CC5)n4)ccc3cn2)cn1 [Compound 4565, 1-Isopropyl-N-(2-(6-((1-methylpiperidin-4-yl)amino)pyrazin-2-yl)-1,6-naphthyridin-7-yl)-1H-pyrazole-4-carboxamide]
EC50 [1]: 1.55 µM
EC50 [2]: 0.012 µM
EC50 [3]: > 10 µM
inhibition at 10 µM [3]: 10.2%
EC50 [4]: 0.042 µM
EC50 [5]: > 10 µM
inhibition at 10 µM [5]: 31%
EC50 [6]: 1.95 µM
EC50 [7]: 1 µM
EC50 [9]: > 10 µM
